Among the test systems are RPMI-8226; SK-MEL-5; Malme-3M; NCI-H23; UO-31; OVCAR-5; SNB-75; EKVX; HCC 2998; HCT-15; HT-29; HOP-92; IGROV-1; KM12; UACC-257; SF-268; HL-60; RXF 393; SF-295.
What all share (assay): inhibition of tumour cell growth, NCI panel, 48 h

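1) Cells in 96-well plates. 2) Compound, 48 h, 5 concentrations. 3) Linear interpolation between surrounding doses. 4) Unreached endpoint = highest concentration. GI50 = concentration required for 50% inhibition of growth.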 Active and inactive are the calls of the source. Rule as the data show it: active = GI50 up to about 1.1 µM and inactive = higher.

For `CCOC(=O)C(=O)CC1=Nc2ccccc2SC(c2cccc(C)c2)C1` (configuration not stated), the GI50 with RPMI-8226 is 23.7 µM (inactive); in the experiment on SK-MEL-5, 18.2 µM (inactive); with Malme-3M, 17.3 µM (inactive); in the experiment on NCI-H23 it was 17.1 µM (inactive); with UO-31, 15.4 µM (inactive); with OVCAR-5, 16.8 µM (inactive). Also, the GI50 is 18.9 µM (inactive) in the experiment with SNB-75; 21.5 µM (inactive) in the experiment with EKVX; 16.3 µM (inactive) in the experiment with HCC 2998; 18.2 µM in the experiment with HCT-15; 15.5 µM (inactive) in the experiment with HT-29; 16 µM (inactive) in the experiment with HOP-92. Besides, the GI50 in the experiment with IGROV-1 is 18.4 µM (inactive); with KM12 it was 16.2 µM (inactive); with UACC-257 it was 19 µM (inactive); in the experiment with SF-268, 16.8 µM (inactive).
Regarding `O=C(O)c1ccc([C@@H]2C(=O)N(O)[C@@H]3C=CC[C@@H]32)cc1`, the GI50 in the experiment on RPMI-8226, in the experiment on SK-MEL-5, in the experiment with Malme-3M, in the experiment on NCI-H23, with UO-31 and in the experiment on SNB-75 was > 100 µM (inactive) throughout. Moreover, the GI50 was > 100 µM (inactive) in the experiment on EKVX; > 100 µM (inactive) in the experiment with HCC 2998; > 100 µM (inactive) in the experiment with HL-60; over 100 µM with HCT-15; > 100 µM (inactive) with HT-29; > 100 µM (inactive) with RXF 393. Also, the GI50 in the experiment with IGROV-1, with KM12, in the experiment on UACC-257, in the experiment with SF-295 and in the experiment on SF-268 was > 100 µM (inactive) throughout.
Consider `N#CC(C(=O)CCCC(=O)Nc1ccc(Cl)cc1Cl)c1ccccc1` (configuration not stated), for which the GI50 in the experiment with SK-MEL-5, in the experiment on Malme-3M, in the experiment with NCI-H23, in the experiment on UO-31, with OVCAR-5 and in the experiment on EKVX was > 100 µM (inactive) throughout. Moreover, the GI50 in the experiment on HCC 2998 was > 100 µM (inactive); with HL-60, > 100 µM (inactive); in the experiment on HCT-15, over 100 µM; in the experiment with HT-29 it was > 100 µM (inactive); in the experiment with HOP-92 it was > 100 µM (inactive); in the experiment on RXF 393, > 100 µM (inactive). For the same compound, the GI50 with IGROV-1, with KM12, with UACC-257, in the experiment with SF-295 and with SF-268 was > 100 µM (inactive) each time.
On to `CCOC(=O)C(Cc1ccccc1)NC(=O)c1ccc(/N=N/N(C)C)cc1` (configuration not stated), for which the GI50 with RPMI-8226, with SK-MEL-5, in the experiment with Malme-3M, with NCI-H23, in the experiment on UO-31 and in the experiment on OVCAR-5 was > 100 µM (inactive) in each case. The GI50 is > 100 µM (inactive) in the experiment on SNB-75; > 100 µM (inactive) in the experiment with EKVX; > 100 µM (inactive) with HCC 2998; > 100 µM (inactive) in the experiment with HL-60; over 100 µM with HCT-15; > 100 µM (inactive) in the experiment with HT-29. The GI50 in the experiment on IGROV-1, in the experiment on KM12, in the experiment on UACC-257, in the experiment with SF-295 and in the experiment with SF-268 was > 100 µM (inactive) each time.
With `COC(=O)C1=CCC2c3[nH]c4ccccc4c3CCN2C1` (configuration not stated), the GI50 is > 354 µM (inactive) with RPMI-8226; > 354 µM (inactive) with SK-MEL-5; > 354 µM (inactive) with Malme-3M; > 354 µM (inactive) in the experiment on NCI-H23; 343 µM (inactive) with EKVX; > 354 µM (inactive) in the experiment with HCC 2998. The GI50 in the experiment with HL-60 was > 354 µM (inactive); in the experiment with HCT-15, over 354 µM; with HT-29, > 354 µM (inactive); in the experiment with HOP-92, > 354 µM (inactive); with RXF 393 it was > 354 µM (inactive); in the experiment on IGROV-1, > 354 µM (inactive). Also, the GI50 was > 354 µM (inactive) in the experiment on KM12, 169 µM (inactive) in the experiment on UACC-257, > 354 µM (inactive) in the experiment with SF-295 and > 354 µM (inactive) in the experiment on SF-268.
Turning to `Nc1nc2c(N)cc(C(F)(F)F)cc2nc1-c1ccccc1`, the GI50 with SK-MEL-5 is > 100 µM (inactive); in the experiment on Malme-3M, > 100 µM (inactive); in the experiment with NCI-H23, > 100 µM (inactive); with UO-31, > 100 µM (inactive); with OVCAR-5, > 100 µM (inactive); in the experiment on SNB-75, 27.2 µM (inactive). For the same compound, the GI50 was 4 µM (inactive) with EKVX; > 100 µM (inactive) in the experiment with HCC 2998; 1.17 µM (inactive) in the experiment with HL-60; over 100 µM in the experiment on HCT-15; > 100 µM (inactive) in the experiment with HOP-92; > 100 µM (inactive) with RXF 393. For the same compound, the GI50 in the experiment with IGROV-1, in the experiment on KM12, with UACC-257, with SF-295 and with SF-268 was > 100 µM (inactive) each time.
With `CC(C)(C)OC(=O)N[C@H]1CC(=O)c2ccccc2N(CC(=O)O)C1=O`, the GI50 with SK-MEL-5 was > 100 µM (inactive); in the experiment on Malme-3M, 19.9 µM (inactive); with NCI-H23, > 100 µM (inactive); in the experiment with UO-31, > 100 µM (inactive); in the experiment on SNB-75 it was 81.1 µM (inactive); in the experiment on EKVX, > 100 µM (inactive). The GI50 in the experiment on HCC 2998 was > 100 µM (inactive); in the experiment on HL-60, > 100 µM (inactive); in the experiment on HCT-15, over 100 µM; with HT-29, > 100 µM (inactive); with HOP-92, > 100 µM (inactive); in the experiment with RXF 393, > 100 µM (inactive). Also, the GI50 with IGROV-1, in the experiment with KM12, with UACC-257, with SF-295 and in the experiment with SF-268 was > 100 µM (inactive) in each case.
Turning to `COC(=O)/C(C#N)=C1\NN=NN1c1ccc(OC)cc1`, the GI50 with RPMI-8226, with SK-MEL-5, in the experiment on Malme-3M, in the experiment on NCI-H23, in the experiment with UO-31 and in the experiment on SNB-75 was > 100 µM (inactive) in each case. Further, the GI50 with EKVX is > 100 µM (inactive); in the experiment with HCC 2998 it was > 100 µM (inactive); in the experiment with HCT-15 it was over 100 µM; in the experiment on HT-29, > 100 µM (inactive); in the experiment on HOP-92, > 100 µM (inactive); with RXF 393, > 100 µM (inactive). Moreover, the GI50 in the experiment on IGROV-1, with KM12, in the experiment with UACC-257 and in the experiment with SF-295 was > 100 µM (inactive) throughout.
Regarding `CC(=O)O[C@]12CCC[C@H]1C1(O)C(O)CCC[C@H]12` (some centres not stated), the GI50 in the experiment with RPMI-8226, with SK-MEL-5, in the experiment on Malme-3M, in the experiment on NCI-H23, in the experiment on UO-31 and in the experiment with SNB-75 was > 100 µM (inactive) in each case. Besides, the GI50 is > 100 µM (inactive) with EKVX; > 100 µM (inactive) in the experiment on HL-60; over 100 µM in the experiment with HCT-15; > 100 µM (inactive) in the experiment with HT-29; > 100 µM (inactive) in the experiment with RXF 393; > 100 µM (inactive) in the experiment on KM12. For the same compound, the GI50 in the experiment with UACC-257, in the experiment with SF-295 and in the experiment on SF-268 was > 100 µM (inactive) throughout.
On to `CCCCCCCCOCC(CO)OCCCCCCCC` (configuration not stated), for which the GI50 in the experiment on RPMI-8226 was 21.7 µM (inactive); in the experiment with SK-MEL-5, 17.9 µM (inactive); with Malme-3M, 19.6 µM (inactive); with NCI-H23, 18.7 µM (inactive); in the experiment with UO-31 it was 20 µM (inactive); with OVCAR-5, 17.9 µM (inactive). The GI50 in the experiment with HCC 2998 was 18.9 µM (inactive); in the experiment on HL-60 it was 19 µM (inactive); with HCT-15, 15.9 µM; with HT-29 it was 20.6 µM (inactive); with HOP-92, 21.8 µM (inactive); in the experiment with IGROV-1, 21.7 µM (inactive). In addition, the GI50 with UACC-257 was 21.3 µM (inactive); in the experiment with SF-295, 16.3 µM (inactive); in the experiment with SF-268 it was 15 µM (inactive).
For `O=C(CSc1nc(-c2ccccc2)c(-c2ccccc2)[nH]1)NNC(=S)Nc1ccccc1`, the GI50 is 27.6 µM (inactive) in the experiment on RPMI-8226; 46.1 µM (inactive) in the experiment on SK-MEL-5; > 100 µM (inactive) in the experiment with Malme-3M; > 100 µM (inactive) in the experiment with NCI-H23; 71.9 µM (inactive) with UO-31; > 100 µM (inactive) with OVCAR-5. For the same compound, the GI50 is > 100 µM (inactive) in the experiment with SNB-75; 0.414 µM (active) in the experiment on EKVX; > 100 µM (inactive) in the experiment with HCC 2998; 22.8 µM (inactive) in the experiment with HL-60; over 100 µM in the experiment with HCT-15; 69.2 µM (inactive) with HT-29. Besides, the GI50 in the experiment with HOP-92 was 36.2 µM (inactive); in the experiment on IGROV-1, 82.4 µM (inactive); with KM12 it was > 100 µM (inactive); in the experiment on UACC-257 it was > 100 µM (inactive); in the experiment on SF-295, 49.9 µM (inactive); in the experiment on SF-268, > 100 µM (inactive).
Turning to `COC(=O)C(Cc1cc(OC)c(OC)c(OC)c1)c1ccc(OC)cc1` (configuration not stated), the GI50 is 44.7 µM (inactive) with RPMI-8226; 45 µM (inactive) with SK-MEL-5; > 100 µM (inactive) in the experiment with Malme-3M; > 100 µM (inactive) in the experiment on UO-31; 44.7 µM (inactive) with OVCAR-5; > 100 µM (inactive) in the experiment on EKVX. Also, the GI50 in the experiment on HL-60 was 95.5 µM (inactive); in the experiment on HCT-15, over 100 µM; in the experiment with HT-29, > 100 µM (inactive); in the experiment with HOP-92, 85.9 µM (inactive); in the experiment on RXF 393 it was > 100 µM (inactive); in the experiment on IGROV-1 it was > 100 µM (inactive). Moreover, the GI50 in the experiment on KM12, in the experiment on UACC-257, in the experiment on SF-295 and in the experiment with SF-268 was > 100 µM (inactive) each time.

Source of the values: ChEMBL document CHEMBL1201862, “PubChem BioAssay data set” (2004).
